Source: PubChem BioAssay AID1963862 (Molecular Pharmacology Branch, DTP, NCI, 2024)

Test system: KRAS patient-derived spheroids with HUVEC/MSC, viability
Test: Anticancer human tumor 941728-121-R-J1-PDC patient-derived lung adenocarcinoma cell line growth inhibition [KRAS2]
Settings: for IC50: curve of first compound; for viability, T/C: stronger effect = lower value
Text: Multicellular complex tumor spheroid response to RAS pathway inhibitors in combination with a targeted agents in patient-derived cell lines with oncogenic KRAS variants from multiple cancer types
A high-throughput screen of multi-cell type tumor spheroids was designed to identify active combinations of targeted small molecules and KRAS pathway inhibitors. Complex spheroids include a stromal component modeled by human endothelial cells (HUVEC) and fibroblasts modeled by human mesenchymal stem cells (MSCs). The concentration ranges selected for each drug and investigational agent were based upon clinically achievable concentrations if the clinical Cmax of the agent was known.
Compounds. The drugs and investigational agents: BI-3406 (NSC825286), BAY-293 (NSC824723), batoprotafib (TNO155; NSC825523), sotorasib (AMG 510; NSC818433), MRTX1257 (NSC819558), elimusertib (BAY 1895344; NSC800525), molibresib (GSK525762; NSC774829), temuterkib (LY3214996; NSC803410), venetoclax (NSC766270), alisertib (NSC759677), olaparib (NSC753686), talazoparib (NSC767125), erdafitinib (NSC781556), ipatasertib (NSC767898), cabozantinib (NSC761068), nintedanib (NSC756659), abemaciclib (NSC768073), docetaxel (NSC628503), trametinib (NSC758246), and sapanisertib (NSC764658) were obtained from the National Cancer Institute (NCI) Developmental Therapeutics Program Chemical Repository. The FDA-approved anticancer drug set is available from the Developmental Therapeutics Program. […] The stock solutions were prepared in dimethyl sulfoxide (DMSO, Sigma-Aldrich, St. Louis, MO, cat. D2650) at 800-fold the tested concentration and stored at -70 degrees C prior to their use. All drugs and investigational agents were tested over a range starting from a high concentration at or near the clinical Cmax and decreasing in half-log increments. If the clinical Cmax for an agent had not been determined, the highest concentration tested was 10 microM.
Cell Culture. All cells were maintained in an incubator at 37 degrees C and 5% CO2 with 95% humidity. The PDC lines were cultured according to standard operating procedures established by the NCI PDMR (https://pdmr.cancer.gov/sops/default.htm). Briefly, all PDCs were thawed and cultured in Matrigel-coated flasks prepared with a working solution of 1X Ham's F-12 nutrient mix, without supplementation (Invitrogen, Waltham, MA, cat. 11765054), 100 U/mL penicillin-streptomycin (Invitrogen, cat. 15140122), and 2.5% Matrigel (Corning Inc., Corning, NY, cat. 354248) for the first three passages. All PDCs were cultured in complete DMEM/F-12 media containing advanced DMEM/F-12 (Invitrogen, cat. 12634028), 4.9% defined fetal bovine serum, heat inactivated (HyClone Laboratories Inc., Logan, UT, cat. SH30070.03HI), 389 ng/mL hydrocortisone (Sigma-Aldrich, cat. H4001), 9.7 ng/mL human EGF recombinant protein (Invitrogen, cat. PHG0313), 23.4 microg/mL adenine (Sigma-Aldrich, cat. A2786), 97.3 U/mL penicillin-streptomycin (Invitrogen, cat. 15140122), 1.9 mM L-glutamine (Invitrogen, cat. 25030081), and 9.7 microM Y-27632 dihydrochloride (Tocris Bioscience, Bristol, United Kingdom, cat. 1254). The PDCs were cultured in complete DMEM/F12 media without 9.7 microM Y-27632 dihydrochloride for at least two passages prior to the screen. The established cell line HOP-62 was cultured in RPMI 1640 medium, HEPES (Invitrogen, cat. 22400105) with 10% defined fetal bovine serum (HyClone Laboratories Inc., cat. SH30070.03) and 2 mM L-glutamine (Invitrogen, cat. 25030081). The pooled donor HUVEC were cultured in endothelial cell growth medium 2 (PromoCell, Heidelberg, Germany, cat. C-22011) and the hMSC were cultured in mesenchymal stem cell growth medium 2 (PromoCell, cat. C-28009). For all experiments, HUVEC and hMSC were used at passages </=5, while the malignant cell lines were used at passages </=15. […]

[1] = second compound 0.1 µM, first compound 0.0316 µM
[2] = second compound 0.1 µM, first compound 0.1 µM
[3] = second compound 0.1 µM, first compound 0.316 µM
[4] = second compound 0.1 µM, first compound 1 µM
[5] = second compound 0.1 µM, first compound 3.16 µM
[6] = second compound 0.1 µM, first compound 10 µM
[7] = second compound 0.316 µM, first compound 0.0316 µM
[8] = second compound 0.316 µM, first compound 0.1 µM
[9] = second compound 0.316 µM, first compound 0.316 µM
[10] = second compound 0.316 µM, first compound 1 µM
[11] = second compound 0.316 µM, first compound 3.16 µM
[12] = second compound 0.316 µM, first compound 10 µM
[13] = second compound 1 µM, first compound 0.0316 µM
[14] = second compound 1 µM, first compound 0.1 µM
[15] = second compound 1 µM, first compound 0.316 µM
[16] = second compound 1 µM, first compound 1 µM
[17] = second compound 1 µM, first compound 3.16 µM
[18] = second compound 1 µM, first compound 10 µM
[19] = second compound 3.16 µM, first compound 0.0316 µM
[20] = second compound 3.16 µM, first compound 0.1 µM
[21] = second compound 3.16 µM, first compound 0.316 µM
[22] = second compound 3.16 µM, first compound 1 µM
[23] = second compound 3.16 µM, first compound 3.16 µM
[24] = second compound 3.16 µM, first compound 10 µM
[25] = second compound 10 µM, first compound 0.0316 µM
[26] = second compound 10 µM, first compound 0.1 µM
[27] = second compound 10 µM, first compound 0.316 µM
[28] = second compound 10 µM, first compound 1 µM
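Also: spheroids exposed to agents for seven days before readout.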

| SMILES | IC50 (second compound 0.1 µM) | IC50 (second compound 0.316 µM) | IC50 (second compound 1 µM) | IC50 (second compound 3.16 µM) | viability, T/C [1] | viability, T/C [2] | viability, T/C [3] | viability, T/C [4] | viability, T/C [7] | viability, T/C [8] | viability, T/C [9] | viability, T/C [10] | viability, T/C [13] | viability, T/C [14] | viability, T/C [15] | viability, T/C [16] | viability, T/C [19] | viability, T/C [20] | viability, T/C [21] | viability, T/C [22] | further results |
| --- | --- | --- | --- | --- | --- | --- | --- | --- | --- | --- | --- | --- | --- | --- | --- | --- | --- | --- | --- | --- | --- |
| COc1cc2nccc(Oc3ccc(NC(=O)C4(C(=O)Nc5ccc(F)cc5)CC4)cc3)c2cc1OC + C=CC(=O)N1CCN(c2nc(=O)n(-c3c(C)ccnc3C(C)C)c3nc(-c4c(O)cccc4F)c(F)cc23)C(C)C1 | < 0.0316 µM | < 0.0316 µM | < 0.0316 µM | < 0.0316 µM | 14.6% | 14.5% | 12.8% | 11.6% | 15% | 15.7% | 11.6% | 11.6% | 17.4% | 16.8% | 14.5% | 12.3% | 17.6% | 16.4% | 15.3% | 16.7% | IC50 (second compound 10 µM): < 0.0316 µM; viability, T/C [5]: 7.75%; viability, T/C [6]: 8.03%; viability, T/C [11]: 6.81%; viability, T/C [12]: 8.86%; viability, T/C [17]: 6.93%; viability, T/C [18]: 8.12%; viability, T/C [23]: 7.9%; viability, T/C [24]: 8.84%; viability, T/C [25]: 19.1%; viability, T/C [26]: 19.5%; viability, T/C [27]: 15.3%; viability, T/C [28]: 13%; viability, T/C (second compound 10 µM, first compound 3.16 µM): 8.1%; viability, T/C (second compound 10 µM, first compound 10 µM): 9.93% |
| COc1cc2nccc(Oc3ccc(NC(=O)C4(C(=O)Nc5ccc(F)cc5)CC4)cc3)c2cc1OC + C=CC(=O)N1CCN(c2nc(OCC3CCCN3C)nc3c2CCN(c2cccc4cccc(C)c24)C3)CC1CC#N | < 0.0316 µM | < 0.0316 µM | < 0.0316 µM | < 0.0316 µM | 14.3% | 15.8% | 15.3% | 13.3% | 15.4% | 16.3% | 13.1% | 13.7% | 14.2% | 14.5% | 10.5% | 7.23% | 0.1% | 0.12% | 0.12% | 0.09% | IC50 (second compound 0.0316 µM): < 0.0316 µM; viability, T/C (second compound 0.0316 µM, first compound 0.0316 µM): 17.9%; viability, T/C (second compound 0.0316 µM, first compound 0.1 µM): 18%; viability, T/C (second compound 0.0316 µM, first compound 0.316 µM): 15.1%; viability, T/C (second compound 0.0316 µM, first compound 1 µM): 13.3%; viability, T/C (second compound 0.0316 µM, first compound 3.16 µM): 7.03%; viability, T/C (second compound 0.0316 µM, first compound 10 µM): 7.62%; viability, T/C [5]: 5.66%; viability, T/C [6]: 6.73%; viability, T/C [11]: 4.32%; viability, T/C [12]: 5.26%; viability, T/C [17]: 1.37%; viability, T/C [18]: 0.49%; viability, T/C [23]: 0.09%; viability, T/C [24]: 0.19% |
| CCN1CCN(Cc2ccc(Nc3ncc(F)c(-c4cc(F)c5nc(C)n(C(C)C)c5c4)n3)nc2)CC1 + CNCc1ccccc1-c1csc(C(C)Nc2nc(C)nc3cc(OC)c(OC)cc23)c1 | 0.00614 µM | < 0.00316 µM | < 0.00316 µM | < 0.00316 µM | 40% | 43.7% | 38.4% | 53% | 31% | 28.9% | 30.6% | 46.8% | 18.7% | 17.1% | 16.9% | 5.4% | 1.42% | 2.24% | 0.67% | 2.46% | IC50 (second compound 10 µM): < 0.00316 µM; viability, T/C (second compound 0.1 µM, first compound 0.00316 µM): 58.2%; viability, T/C (second compound 0.1 µM, first compound 0.01 µM): 43.9%; viability, T/C (second compound 0.316 µM, first compound 0.00316 µM): 44%; viability, T/C (second compound 0.316 µM, first compound 0.01 µM): 38.5%; viability, T/C (second compound 1 µM, first compound 0.00316 µM): 22.1%; viability, T/C (second compound 1 µM, first compound 0.01 µM): 25.4%; viability, T/C (second compound 3.16 µM, first compound 0.00316 µM): 1.35%; viability, T/C (second compound 3.16 µM, first compound 0.01 µM): 1.57%; viability, T/C (second compound 10 µM, first compound 0.00316 µM): 0.72%; viability, T/C (second compound 10 µM, first compound 0.01 µM): 0.55%; viability, T/C [25]: 0.84%; viability, T/C [26]: 0.24%; viability, T/C [27]: 0.74%; viability, T/C [28]: 0.15% |
